Assay [1] addresses T1, rat P2X2/3 (rat P2X3 co-expressed with rat P2X2) (Rattus norvegicus, UniProt P49653+P49654).
T1 sequence (P49654 1-397): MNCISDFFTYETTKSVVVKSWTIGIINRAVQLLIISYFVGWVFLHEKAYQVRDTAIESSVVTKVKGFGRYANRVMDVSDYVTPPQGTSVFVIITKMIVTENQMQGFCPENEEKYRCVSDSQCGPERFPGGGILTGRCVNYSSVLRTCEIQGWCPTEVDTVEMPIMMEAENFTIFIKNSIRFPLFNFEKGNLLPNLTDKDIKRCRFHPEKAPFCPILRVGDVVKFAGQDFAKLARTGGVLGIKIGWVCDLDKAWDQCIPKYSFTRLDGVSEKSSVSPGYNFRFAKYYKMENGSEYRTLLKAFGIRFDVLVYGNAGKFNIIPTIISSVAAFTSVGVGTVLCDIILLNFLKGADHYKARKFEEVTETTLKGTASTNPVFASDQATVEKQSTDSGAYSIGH
T1 sequence (P49653 1-472): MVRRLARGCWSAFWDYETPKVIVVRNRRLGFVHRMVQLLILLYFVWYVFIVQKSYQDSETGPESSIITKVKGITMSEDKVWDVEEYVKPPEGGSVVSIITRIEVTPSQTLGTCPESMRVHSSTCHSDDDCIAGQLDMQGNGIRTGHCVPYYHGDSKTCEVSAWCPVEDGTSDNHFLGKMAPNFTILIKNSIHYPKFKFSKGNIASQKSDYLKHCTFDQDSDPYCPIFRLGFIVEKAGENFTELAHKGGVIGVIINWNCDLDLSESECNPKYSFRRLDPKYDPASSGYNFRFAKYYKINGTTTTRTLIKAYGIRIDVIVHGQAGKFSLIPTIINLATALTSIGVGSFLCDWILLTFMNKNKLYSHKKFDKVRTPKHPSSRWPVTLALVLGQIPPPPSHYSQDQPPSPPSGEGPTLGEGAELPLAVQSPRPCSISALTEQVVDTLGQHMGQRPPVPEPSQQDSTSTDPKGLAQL
In words: rat P2X2/3 FLIPR calcium (Fluo-4) antagonist assay. To be noted: Rat P2X2/3 FLIPR Mean IC50 (nM), HEK-TREX cells, tetracycline-induced rat P2X3 with constitutive rat P2X2; agonist 500 nM α,β-methylene-ATP.

For assay [2], the target named is T2, hP2X3 (human Purinergic P2X receptors subtype 3), clone A (Homo sapiens, UniProt P56373).
T2 sequence (P56373 1-397): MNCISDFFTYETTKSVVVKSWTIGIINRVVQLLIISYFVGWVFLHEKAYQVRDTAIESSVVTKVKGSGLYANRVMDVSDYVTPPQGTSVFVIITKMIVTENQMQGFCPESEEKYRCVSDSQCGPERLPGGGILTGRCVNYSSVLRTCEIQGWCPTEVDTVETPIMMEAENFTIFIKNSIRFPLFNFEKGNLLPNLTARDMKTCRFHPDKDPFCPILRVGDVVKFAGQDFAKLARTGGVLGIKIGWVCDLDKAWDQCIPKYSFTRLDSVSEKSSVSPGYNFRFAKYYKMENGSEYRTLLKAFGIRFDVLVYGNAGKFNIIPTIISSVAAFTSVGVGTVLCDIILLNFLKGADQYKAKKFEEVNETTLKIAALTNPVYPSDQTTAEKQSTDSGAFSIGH
The experiment in a line: hP2X3 FLIPR calcium (Fluo-4) antagonist assay, clone A. Particulars: Human P2X3 FLIPR Clone A Mean IC50 (nM), RLE cells expressing hP2X3 clone A (AB016608); agonist 500 nM α,β-methylene-ATP.
Method: The assay used a calcium indicator dye (Fluo-4) that emits fluorescence, the intensity of which is related to the concentration of calcium that entered the cell when P2X3 was activated and the channel opened. Activation of hP2X3 or rat P2X3 and rat P2X2/3 (from the coexpression of rat P2X3 and rat P2×2) is elicited the by P2X3 agonist α,β methylene-ATP (Sigma M6517), and the resulting fluorescence is measured with a FLIPR II™ instrument (Molecular Devices). Compounds are tested for their ability to inhibit the agonist-induced fluorescent signal.
For the rat P2X2/3 HEK-TREX cells, induction of the rat P2X3 expression is used to generate the rat P2X2/3 channels in HEK-TREX cells and performed by addition of 1 μg/mL tetracycline (Invitrogen) 24 h prior to compounds testing to the HEK-TREX expressing the rat P2X2 constitutively. On the day of the experiment, the cells and test compounds are prepared as follows. […] After preparing the compounds, the medium is removed from the cell plates by inversion. A loading solution of 30 μL assay buffer containing 4 μM of the calcium indicator dye FLUO-4 AM (Molecular Probes F14202) is added to each well using a Multidrop (Labsystems). […] The incubation is terminated by washing the cells four times in assay buffer using a Skatron Embla (Molecular Devices), and 25 μL of assay buffer was left in each well. Cell plates are then transferred to the FLIPR. Experiments are initiated by measuring a baseline fluorescence reading for 10 seconds, followed by the addition of 12.5 μL of cpds and data sampling for a total 280 seconds. The experiments are terminated by addition of 12.5 μL of a reference agonist (500 nM α,β-methylene-ATP) or buffer, producing a final assay volume of 50 μL followed by data sampling for an additional 280 seconds.
In P2X3 antagonist experiments (human and rat assays) data are analysed as normalised maximal peak fluorescence monitored following agonist addition and calculated as percent of relative fluorescent counts from control agonist. The dose-response antagonist inhibition curves are analyzed in a 4-parameter sigmoidal fit using a non-linear curve-fitting program (XLfit version 5.0.6, ID Business Solutions Limited, Guildford, UK).

Assay [3] deals with T3, hP2X3 (human Purinergic P2X receptors subtype 3), clone B (Homo sapiens, UniProt P56373).
T3 sequence (P56373 1-397): T2 sequence (P56373 1-397)
The experiment in a line: hP2X3 FLIPR calcium (Fluo-4) antagonist assay, clone B. Particulars: Human P2X3 FLIPR Clone B IC50 (nM), RLE cells expressing hP2X3 clone B (NM_002559); agonist 500 nM α,β-methylene-ATP.

As to `CC(C)N1Cc2c(NC(C)(C)Cc3ccc(Cl)cc3)nc(N3CCN(C)C(=O)C3)nc2C1=O` [Example 69, 4-{[2-(4-chlorophenyl)-1,1-dimethylethyl]amino}-6-isopropyl-2-(4-methyl-3-oxopiperazin-1-yl)-5,6-dihydro-7H-pyrrolo[3,4-d]pyrimidin-7-one], the values for the IC50 in assay [1], in assay [2] and in assay [3] were 1920 nM, 86.2 nM and 140 nM, respectively.

For `CC(=O)N1CCN(c2nc(NCc3ccc(OC(F)(F)F)cc3C)c3c(n2)C(=O)N(C(C)C)C3)CC1` [Example 122, 2-(4-acetylpiperazin-1-yl)-6-isopropyl-4-{[2-methyl-4-(trifluoromethoxy)benzyl]amino}-5,6-dihydro-7H-pyrrolo[3,4-d]pyrimidin-7-one], the concentration for half-maximal inhibition (IC50) (usually the concentration needed to halve the response being measured) in assay [1] was determined as 6320 nM; in assay [3], 130 nM.

For the compound `CC(=O)N1CCN(c2nc(NCc3cc(-c4ccccc4)on3)c3c(n2)C(=O)N(C(C)C)C3)CC1` [Example 144, 4-(4-acetylpiperazin-1-yl)-2-[(5-phenyl-1,2-oxazol-3-yl)methylamino]-8-propan-2-yl-3,5,8-triazabicyclo[4.3.0]nona-1,3,5-trien-7-one], the IC50 in assay [1] is 4800 nM; in assay [3], 45 nM.

In the case of `CCN(Cc1cnc2ccccc2c1)c1nc(N2CCN(C(C)=O)CC2)nc2c1CN(C(C)C)C2=O` [Example 246, 2-(4-acetylpiperazin-1-yl)-4-(ethyl(quinolin-3-ylmethyl)amino)-6-isopropyl-5H-pyrrolo[3,4-d]pyrimidin-7(6H)-one], the values for the IC50 in assay [1] and in assay [3] were 10400 nM and 68 nM, respectively.

As for `CC(=O)N1CCN(c2nc(NC(C)(C)Cc3ccc(F)cc3)c3c(n2)C(=O)N(C(C)C)C3)CC1C` (stereo not shown) [Example 138, 2-(4-Acetyl-3-methyl-piperazin-1-yl)-4-[2-(4-fluoro-phenyl)-1,1-dimethyl-ethylamino]-6-isopropyl-5,6-dihydro-pyrrolo[3,4-d]pyrimidin-7-one], the IC50 is 16200 nM in assay [1] and 750 nM in assay [3].

In the case of `CC(=O)N1CCN(c2nc3c(c(N4CCCC4Cc4ccc(C)cc4)n2)CN(C(C)C)C3=O)CC1` (stereo not shown) [Example 47, 2-(4-acetylpiperazin-1-yl)-6-isopropyl-4-[2-(4-methylbenzyl)pyrrolidin-1-yl]-5,6-dihydro-7H-pyrrolo[3,4-d]pyrimidin-7-one], the IC50 was found to be 2680 nM in assay [1] and 130 nM in assay [3].
